Test results: patent US10696648B2, “Inhibitors of indoleamine 2,3-dioxygenase and methods of their use” (BRISTOL-MYERS SQUIBB COMPANY, priority 2016, dated 2020)

Molecular target: T1, human IDO1 (Homo sapiens, UniProt P14902)
T1 construct: expressed in transfected cells
Experiment: HEK293 cells stably expressing human IDO1, IDO inhibition assay (kynurenine, Ehrlich reagent)
Format: cell-based
Settings: 20 hours incubation, absorbance at 490 nm, read-out: HEK Human IDO-1 Bio Activity (IDO IC50)
Procedure: HEK293 cells were transfected with a pCDNA-based mammalian expression vector harboring human IDO1 cDNA (NM 002164.2) by electroporation. They were cultured in medium (DMEM with 10% FBS) containing 1 mg/ml G418 for two weeks. Clones of HEK293 cells that stably expressed human IDO1 protein were selected and expanded for IDO inhibition assay. The human IDO1/HEK293 cells were seeded at 10,000 cells per 50 μL per well with RPMI/phenol red free media contains 10% FBS in a 384-well black wall clear bottom tissue culture plate (Matrix Technologies LLC) 100 nL of certain concentration of compound was then added to each well using ECHO liquid handling systems. The cells were incubated for 20 hours in 37° C. incubator with 5% CO2. The compound treatments were stopped by adding trichloroacetic acid (Sigma-Aldrich) to a final concentration at 0.2%. The cell plate was further incubated at 50° C. for 30 minute. The equal volume supernatant (20 μL) and 0.2% (w/v) Ehrlich reagent (4-dimethylaminobenzaldehyde, Sigma-Aldrich) in glacial acetic acid were mixed in a new clear bottom 384-well plate. This plate was then incubated at room temperature for 30 minute. The absorbance at 490 nm was measured on Envision plate reader. Compound IC50 values were calculated using the counts of 500 nM of a reference standard treatment as one hundred percent inhibition, and counts of no compound but DMSO treatment as zero percent inhibition.

T1 sequence (P14902 whole entry): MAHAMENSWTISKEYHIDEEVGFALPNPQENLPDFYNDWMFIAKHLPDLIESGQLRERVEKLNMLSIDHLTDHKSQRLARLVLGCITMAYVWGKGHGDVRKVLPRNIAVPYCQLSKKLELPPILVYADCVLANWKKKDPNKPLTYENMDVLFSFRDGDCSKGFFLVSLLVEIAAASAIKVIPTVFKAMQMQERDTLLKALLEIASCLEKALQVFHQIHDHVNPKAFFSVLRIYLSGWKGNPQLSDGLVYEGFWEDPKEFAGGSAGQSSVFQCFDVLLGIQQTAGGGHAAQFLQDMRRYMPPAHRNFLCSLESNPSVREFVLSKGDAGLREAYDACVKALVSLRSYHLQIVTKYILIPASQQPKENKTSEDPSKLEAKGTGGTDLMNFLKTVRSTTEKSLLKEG

Row | SMILES | IC50 [nM]
1 | O=C(O)Cc1ccc(CN(C(=O)Nc2ccc(Cl)cc2F)[C@H]2CC[C@H](c3ccnc4ccc(F)cc43)CC2)cc1 [Example 26, 2-(4-((3-(4-chloro-2-fluorophenyl)-1-(trans-4-(6-fluoroquinolin-4-yl)cyclohexyl)ureido)methyl)phenyl) acetic acid] | < 100
2 | O=C(Nc1ccc(Cl)cc1F)N(Cc1ccccc1)[C@H]1CC[C@H](c2ccnc3ccc(F)cc32)CC1 [Example 21, 1-benzyl-3-(4-chloro-2-fluorophenyl)-1-(trans-4-(6-fluoroquinolin-4-yl)cyclohexyl)urea] | < 1000
3 | COc1ccc(CN(C(=O)NCc2ccc(F)cc2)C2CCC(c3ccccc3)CC2)cc1 (stereo not shown) [Example 32, 3-(4-fluorobenzyl)-1-(4-methoxybenzyl)-1-((1r,4r)-4-phenylcyclohexyl)urea] | < 10000
4 | CCN(C(=O)Nc1ccc(Cl)cc1)[C@H]1CC[C@H](c2ccnc3ccc(F)cc32)CC1 [Example 16, 3-(4-Chlorophenyl)-1-ethyl-1-(trans-4-(6-fluoroquinolin-4-yl)cyclohexyl)urea] | < 100
